According to patent publication US20240018132A1, “5-HYDROXY-1,4-NAPHTHALENEDIONE FOR USE IN THE TREATMENT OF CANCER” (GODAVARI BIOREFINERIES LIMITED, priority 2020, published 2024):
Read-outs that look alike come from different tables or passages of the source.

Legend:
[1] = system: MDAMB231; assay: In vitro antiproliferative assay (MTT assay), breast cancer cell line; assay type: cell-based; details: MTT assay, breast cancer MDAMB231, 48 hrs drug incubation
Procedure, shortened: (§1)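 Growth inhibition determined by MTT (0.5 mg/ml, 4 h) following 48 h compound treatment of cells plated 24 h earlier at 37 °C, 5% CO2.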

[2] = system: PC3; assay: In vitro antiproliferative assay (MTT assay), prostate cancer cell line; assay type: cell-based; details: MTT assay, prostate cancer PC3, 48 hrs drug incubation
Procedure, shortened: as §1

[3] = system: MDAMB231; details: human, 216 h
Method: (§5) In Vitro Sphere-forming Assay: Sphere assay measures the ability of cancer stem cells (CSCs) to form spheres in specially designed serum-free medium.
(§6) Mammosphere Media Preparation (For 100 mL): 1 g methyl cellulose autoclaved with magnetic stirrer, 100 ml plain media (MEBM) was added and dissolved under magnetic stirring. After complete dissolution FGF-80 μL, EGF-40 μL, Penstrep-1 mL, Heparin-400 μL was added.
(§7) Procedure—The cells were trypsinised and made into single-cell suspension by passing through cell strainers (100 μl and 40 μl, respectively), The cells were diluted at a concentration of 2000 cells/100 μL and suspended in either Mammosphere (for breast cell lines) or Prostosphere (for prostate cell lines). 100 μL of this suspension was added into each well of 96-well suspension plates and incubated at 37° C., 5% CO2 for 24 hrs. Appropriate concentrations of the drugs (2 μL) were added into respective wells with 100 μL of stem cell culture medium. Plates were incubated at 37° C., 50 CO2 for 72 hrs. After incubation, 2.5 μL of the respective drug concentration and 50 μL of stem cell culture medium were added into each well and the plates were further incubated at 37° C., 50% CO2 for 72 hrs. 3 μL of the respective drug concentration was added with 50 μL of stem cell culture medium again after incubation and plates were reincubated for 72 hrs at 37° C., 50 CO2. Number of primary spheres formed for each concentration were counted. The spheres were converted to 0 viability of spheres compared to untreated (Growth Control with DMSO, GCD).

[4] = system: PC3; details: human, 216 h
Method: as §5
(§8) Prostosphere Media Preparation (For 100 mL):1 g methyl cellulose autoclaved with magnetic stirrer, 100 mL plain media (Prostate Epithelial Basal Medium) was added and dissolved, under magnetic stirring. After complete dissolution, Insulin-40 μL, B27-2 mL, EGF-80 μL, Penstrep-1 ml was added.
as §7

[5] = system: MDAMB231; assay: In vitro sphere-forming assay (cancer stem cells), Mammosphere media; details: for 3D sphere count of MDAMB231: Mammosphere media, 2000 cells/well, n = 6 ± S.D; for viability at 0.0025 µM / viability at 0.025 µM / viability at 0.25 µM / viability at 2.5 µM / viability at 25 µM: Homo sapiens, MDA-MB-231, read-out: % Viability of spheres (MDAMB231)
Method: as §5, §6, §7

[6] = system: PC3; assay: In vitro sphere-forming assay (cancer stem cells), Prostosphere media; details: for 3D sphere count of PC3: Prostosphere media, 2000 cells/well, n = 6 ± S.D; for viability at 0.0025 µM / viability at 0.025 µM / viability at 0.25 µM / viability at 2.5 µM / viability at 25 µM: Homo sapiens, PC-3, read-out: % Viability of spheres (PC3)
Method: as §5, §8, §7

[7] = system: MDAMB231; assay: Soft agar colony-formation assay, breast cancer; assay type: cell-based; details: for anticancer activity in comparison with cisplatin, soft agar, breast cancer cell line: FIG. 51, MDAMB231; for IC50: Homo sapiens, MDA-MB-231, 168 h, Soft Agar Assay, 1 week, Alamar Blue
Method: (§2) The Soft Agar Colony-formation Assay is an anchorage-independent growth assay in soft agar, which is one of the most stringent assays for detecting malignant transformation of cells. For this assay, malignant cells are cultured with appropriate controls in soft agar medium for 1-2 weeks. Following this incubation period, formed colonies can either be analyzed morphologically using cell stain and quantifying the number of colonies formed.
(§3) Briefly, for Soft Agar Assay a mixture of 50 ul of 2× medium (taken appropriately as per cell line) and 50 ul of 1.2% Bacto Agar were plated on to each well of 96 well micro titer assay plate. 10 ul of cells (of specific plating efficiency pre standardized for respective cell line) were mixed with 20 ul of 2× medium and 30 ul of 0.8% of Bacto Agar and 1.6 ul of drug (of appropriate concentration) in a vial and transferred to the solidified pre layers of the assay plates. The cells were then allowed to grow and form colonies at 37° C. and 5% CO2 for 1 week. An intermittent feeding with 50 ul of appropriate 2× medium was performed after 3 days of experimental set up. 16 ul of Alamar Blue (1.5 mg/ml) was then added to all the wells to quantify the developed colonies. The plates were incubated for 24 hrs at 37° C. Absorbance was then measured at 630 nm. XY graph of log Percent viability was then plotted against log drug concentration.
(§4) Following plating efficiencies were standardized for Soft Agar Assay: […]

[8] = system: PC3; assay: Soft agar colony-formation assay, prostate cancer; assay type: cell-based; details: for anticancer activity in comparison with cisplatin, soft agar, prostate cancer cell line: FIG. 52, PC3; for IC50: Homo sapiens, PC-3, 168 h, Soft Agar Assay, 1 week, Alamar Blue
Method: as §2, §3, §4

[9] = system: Human lymphocytes; assay: Lymphocyte assay (MTT on normal cells); assay type: cell-based; details: human peripheral blood lymphocytes, MTT procedure
Method: Human lymphocytes were isolated from the peripheral blood. A pure population of lymphocytes was obtained based on differential centrifugation, in which diluted defibrinated blood was layered on a solution of sodium diatrizoate and polysucrose (HiSep LSM 1077) and centrifuged at low speeds for 30 mins.
Procedure: The separation of lymphocytes from fresh defibrinated blood was performed by the procedure described below: • 1. Diluted defibrinated fresh blood was overlaid gradually on (HiSeP LSM1077) and centrifuged at low speed for 30 mins. • 2. The lymphocyte layer (the buffy coat) was carefully removed in a new collection tube. • 3. The buffy coat was given another wash, by the diluent buffer Dulbecco's phosphate buffered saline (D.P.B.S) • 4. The supernatant was discarded and the pellet was resuspended in D.P.B.S. • 5. The viability of cells was checked by Haemocytometer. • 6. Cells with purity and viability of more than 95% were taken for the experiment. • 7. Purified lymphocytes were diluted at a concentration of 0.7 million/ml with sterile D.P.B.S and MTT procedure was performed exactly as described earlier.

COc1ccc(OC2=CC(=O)c3c(OCCN4CCOCC4)cccc3C2=O)cc1 [Formula 81]
IC50 [1]: 631 nM | IC50 [2]: 2190 nM | % Viability of spheres (MDAMB231) ([3]; 0.0025 uM): 82(±4) % | % Viability of spheres (MDAMB231) ([3]; 0.025 uM): 61(±3) % | % Viability of spheres (MDAMB231) ([3]; 0.25 uM): 46(±3) % | % Viability of spheres (MDAMB231) ([3]; 2.5 uM): 33(±4) % | % Viability of spheres (MDAMB231) ([3]; 25 uM): 21(±3) % | % Viability of spheres (PC3) ([4]; 0.0025 uM): 75(±4) % | % Viability of spheres (PC3) ([4]; 0.025 uM): 57(±5) % | % Viability of spheres (PC3) ([4]; 0.25 uM): 46(±4) % | % Viability of spheres (PC3) ([4]; 2.5 uM): 30(±4) % | % Viability of spheres (PC3) ([4]; 25 uM): 21(±3) % | 3D sphere count of MDAMB231 ([5]; drug 0.0025 uM): 82(±4) | 3D sphere count of MDAMB231 ([5]; drug 0.025 uM): 61(±3) | 3D sphere count of MDAMB231 ([5]; drug 0.25 uM): 46(±3) | 3D sphere count of MDAMB231 ([5]; drug 2.5 uM): 33(±4) | 3D sphere count of MDAMB231 ([5]; drug 25 uM): 21(±3) | 3D sphere count of PC3 ([6]; drug 0.0025 uM): 75(±4) | 3D sphere count of PC3 ([6]; drug 0.025 uM): 57(±5) | 3D sphere count of PC3 ([6]; drug 0.25 uM): 46(±4) | 3D sphere count of PC3 ([6]; drug 2.5 uM): 30(±4) | 3D sphere count of PC3 ([6]; drug 25 uM): 21(±3)

O=C1C(Nc2ccc3c(c2)OCO3)=CC(=O)c2c(OCC(=O)N3CCOCC3)cccc21 [Formula 71]
IC50 ([1]; Homo sapiens, MDA-MB-231, 48 h): 1350 nM | IC50 ([2]; Homo sapiens, PC-3, 48 h): 3550 nM | anticancer activity in comparison with cisplatin, soft agar, breast cancer cell line [7]: higher anticancer activity in comparison with cisplatin | IC50 [7]: 1790 nM | anticancer activity in comparison with cisplatin, soft agar, prostate cancer cell line [8]: higher anticancer activity in comparison with cisplatin | IC50 [8]: 3310 nM | IC50 ([9]; Lymphocyte): 25200 nM | viability at 0.0025 µM [5]: 79% | viability at 0.025 µM [5]: 64% | viability at 0.25 µM [5]: 53% | viability at 2.5 µM [5]: 34% | viability at 25 µM [5]: 13% | 3D sphere count of MDAMB231 ([5]; drug 0.0025 uM): 65(±5) | 3D sphere count of MDAMB231 ([5]; drug 0.025 uM): 53(±4) | 3D sphere count of MDAMB231 ([5]; drug 0.25 uM): 44(±4) | 3D sphere count of MDAMB231 ([5]; drug 2.5 uM): 28(±3) | 3D sphere count of MDAMB231 ([5]; drug 25 uM): 11(±2) | viability at 0.0025 µM [6]: 95% | viability at 0.025 µM [6]: 65% | viability at 0.25 µM [6]: 52% | viability at 2.5 µM [6]: 37% | viability at 25 µM [6]: 20% | 3D sphere count of PC3 ([6]; drug 0.0025 uM): 65(±5) | 3D sphere count of PC3 ([6]; drug 0.025 uM): 53(±4) | 3D sphere count of PC3 ([6]; drug 0.25 uM): 44(±4) | 3D sphere count of PC3 ([6]; drug 2.5 uM): 28(±3) | 3D sphere count of PC3 ([6]; drug 25 uM): 11(±2)

COc1ccc(NC2=CC(=O)c3c(OCCCCN4CCOCC4)cccc3C2=O)cc1OC [Formula 41]
IC50 ([1]; Homo sapiens, MDA-MB-231, 48 h): 3060 nM | IC50 ([2]; Homo sapiens, PC-3, 48 h): 2730 nM | anticancer activity in comparison with cisplatin, soft agar, breast cancer cell line [7]: higher anticancer activity in comparison with cisplatin | IC50 [7]: 1630 nM | anticancer activity in comparison with cisplatin, soft agar, prostate cancer cell line [8]: higher anticancer activity in comparison with cisplatin | IC50 [8]: 2670 nM | Activity on Lymphocytes (IC50) [9]: No activity | viability at 0.0025 µM [5]: 86% | viability at 0.025 µM [5]: 70% | viability at 0.25 µM [5]: 52% | viability at 2.5 µM [5]: 34% | viability at 25 µM [5]: 19% | 3D sphere count of MDAMB231 ([5]; drug 0.0025 uM): 66(±4) | 3D sphere count of MDAMB231 ([5]; drug 0.025 uM): 54(±4) | 3D sphere count of MDAMB231 ([5]; drug 0.25 uM): 40(±3) | 3D sphere count of MDAMB231 ([5]; drug 2.5 uM): 26(±3) | 3D sphere count of MDAMB231 ([5]; drug 25 uM): 15(±3) | viability at 0.0025 µM [6]: 85% | viability at 0.025 µM [6]: 72% | viability at 0.25 µM [6]: 54% | viability at 2.5 µM [6]: 46% | viability at 25 µM [6]: 27% | 3D sphere count of PC3 ([6]; drug 0.0025 uM): 74(±4) | 3D sphere count of PC3 ([6]; drug 0.025 uM): 63(±3) | 3D sphere count of PC3 ([6]; drug 0.25 uM): 47(±5) | 3D sphere count of PC3 ([6]; drug 2.5 uM): 40(±4) | 3D sphere count of PC3 ([6]; drug 25 uM): 24(±4)
